# Assay results as given in patent EP0529395A2, “Benzamide multidrug resistance reversing agents” (Bristol-Myers Squibb Company, priority 1991, dated 1993).
# Starred links: 1 amine or outer side, 2 acyl side, 3 side chain; linkers in the order of their positions; H or OH if unused. Positions of bridges follow the written chain, without caps; N, C: chain ends. Non-standard residues stand in square brackets, D forms with d. Residues, ends and D or L forms follow the SMILES beside them. Chains are numbered I, II in the order given. Actinocin(9to1) = Cc1c2oc3c(C)ccc(C(=O)[*:1])c3nc-2c(C(=O)[*:2])c(N)c1=O; NMeV = CN[C@H](C(=O)O)C(C)C; Sar = CNCC(=O)O
# Legend:
# Assay type in all cases: cell-based, human
# HCT-116/VM46 = test: Cytotoxic assay, MDR reversing effect with actinomycin D in resistant colon carcinoma cells
# Description: (§1) Cell Culture: HCT116/VM46 cells were selected from human colon carcinoma HCT116 cell line for resistance to VM26 and MCF-7/ADR cells were selected from human breast carcinoma MCF-7 cell line for resistance to Adriamycin. […] The cell lines were grown in tissue culture flasks containing McCoy's 5A medium and 10% fetal bovine serum. Cells were maintained at 37°C in a humidified atmosphere containing 5% C02 and subcultured every 5 days.
# (§2) Cytotoxic Assay: The cells were seeded in 96 well microtiter plates at 5x10^3 cells per well and allowed to grow for 24 hours at 37 °C. Cells were then incubated with decreasing amounts of antitumor agents: Adriamycin (100 µM, maximal concentration) or actinomycin D (17.6 ng/ml), for MCF-7 and HCT-116 cells, respectively. Chemosensitizers were added at variable concentrations ranging from 0.08 µM to […]. In parallel, verapamil was used as positive control at the same concentrations. After 48 hours of incubation, the cells were washed, fixed and stained with crystal violet. Absorbance was read by Molecular Devices' microtiter plate reader at the wavelength of 595nm. The IC50 value (50% inhibition of cell growth) was determined from relative survival rates resulted from two to three independent experiments. The term "fold resistance" was defined as the ratio of the IC50 for antitumor drug in the presence or absence of chemosensitizer in resistant cells divided by the IC50 for antitumor drug in its sensitive counterpart. This value provides an estimate of the apparent potency of each reversing agent in enhancing drug effect.
# HCT116 = test: Cytotoxic assay, actinomycin D in sensitive colon carcinoma cells; conditions: no chemosensitizer
# Description: as §1
# as §2, with “The term "fold resistance" was defined as the ratio of the IC50 for antitumor drug in the presence or absence of chemosensitizer in resistant cells divided by the IC50 for antitumor drug in its sensitive counterpart. This value provides an estimate of the apparent potency of each reversing agent in enhancing drug effect.” left out
# MCF-7/ADR = test: Cytotoxic assay, MDR reversing effect with Adriamycin in resistant breast carcinoma cells
# Description: as §1, §2
# [1] = ADR IC50 in MCF-7/ADR with chemosensitizer 0.67 µM divided by ADR IC50 in sensitive MCF-7
# [2] = ActD IC50 in HCT-116/VM46 with chemosensitizer 0.4 μM divided by ActD IC50 in sensitive HCT116
compound,measurement,setting,value
"Cc1c2oc3c(C)ccc(C(=O)N[C@@H]4C(=O)N[C@H](C(C)C)C(=O)N5CCC[C@H]5C(=O)N(C)CC(=O)N(C)[C@@H](C(C)C)C(=O)O[C@@H]4C)c3nc-2c(C(=O)N[C@@H]2C(=O)N[C@H](C(C)C)C(=O)N3CCC[C@H]3C(=O)N(C)CC(=O)N(C)[C@@H](C(C)C)C(=O)O[C@@H]2C)c(N)c1=O [ActD, Actinomycin D] (I: T[dV]P[Sar][NMeV] / II: T[dV]P[Sar][NMeV]; ester I:1-I:C, II:1-II:C; linker I:N-II:N via Actinocin(9to1))",ActD IC50,"HCT-116/VM46; HCT-116/VM46 cells, no chemosensitizer",10 ng/mL
same,Fold Resistance,"HCT-116/VM46; HCT-116/VM46 versus HCT116, ActD, no chemosensitizer",20.0
same,ActD IC50,HCT116,0.5 ng/mL
"COc1ccc(CCN(C)CCCC(C#N)(c2ccc(OC)c(OC)c2)C(C)C)cc1OC (stereo not drawn) [Verapamil, verapamil]",Fold Resistance,MCF-7/ADR; [1],63.9
same,Fold Resistance,HCT-116/VM46; [2],11.6
"C/C=C/C(=O)Nc1cc(OCCSc2ccccc2)c(C(=O)NCCN(CC)CC)cc1Cl [If, 5-Chloro-4-crotonylamino-N-[2-(diethylamino)ethyl]-2-[2-(phenylthio)ethoxy]benzamide]",Fold Resistance,MCF-7/ADR; [1],28.6
same,Fold Resistance,HCT-116/VM46; [2],4.8
"CCN(CC)CCNC(=O)c1cc(Cl)c(N)cc1OCCCc1ccccc1 [Ic, 4-Amino-5-chloro-N-[2-(diethylamino)ethyl]-2-[3-(phenyl)pronoxy]benzamide]",Fold Resistance,HCT-116/VM46; [2],9.8
"CCN(CC)CCN(C(=O)c1cc(Cl)c(N)cc1Oc1ccc([N+](=O)[O-])cc1)c1ccc([N+](=O)[O-])cc1 [Ii, 4-Amino-5-chloro-N-[2-(diethylamino)ethyl]-2-(4-nitrophenoxy)-N-(4-nitrophenyl)benzamide]",Fold Resistance,HCT-116/VM46; [2],9.8
"COc1cccc2c1C(=O)c1c(O)c3c(c(O)c1C2=O)C[C@@](O)(C(=O)CO)C[C@@H]3O[C@H]1C[C@H](N)[C@H](O)[C@H](C)O1 [ADR, Adriamycin]",IC50,"MCF-7/ADR; Homo sapiens, NCI/ADR-RES, 48 h, MCF-7/ADR cells, no chemosensitizer",50 µM
same,Fold Resistance,"MCF-7/ADR; MCF-7/ADR versus MCF-7, ADR, no chemosensitizer",138.9
CCN(CC)CCN(C(=O)c1cc(Cl)c(N)cc1Oc1ccc(C(F)(F)F)cc1[N+](=O)[O-])c1ccc(C(F)(F)F)cc1[N+](=O)[O-] [Ia],Fold Resistance,HCT-116/VM46; [2],11.0
